± gives the expanded uncertainty stated by the source.
Tests used:
[1] = refractive index (Na D-line) (dimensionless); conditions: 298.15 K; 101.33 kPa; Liquid; Standard Abbe refractometry
[2] = 298.15 K; 101.33 kPa; Liquid; Vibrating tube method

## CCOS(=O)(=O)[O-].CC[n+]1cccc(C)c1 [1-ethyl-3-methylpyridinium ethylsulfate]
[1]
  refractive index: 1.50591 ± 0.00038
[2]
  mass density: 1219.61 ± 0.41 kg/m3

Source: the NIST ThermoML archive (doi:10.1016/j.fluid.2010.05.009)
